“Also recorded” adds a separate entry of the source.
Tests used:
SOCE [1] = system: SOCE; parameters: method as in PMID 30347159; conditions: cited from earlier work
cerulein-induced AP = system: cerulein-induced AP; parameters: method as in PMID 30347159; conditions: rodents; cited from earlier work
SOCE [2] = test: SOCE inhibition in HEK cells by fluorescence microscopy (calcium imaging); type: cell-based, human; conditions: HEK cells, Figure S1
Description: With these two compounds in hand, two click reactions were performed and compounds 9 and 18 (Table 1), displaying the same substructures as the reference compound Synta66, were obtained with a yield of 31 and 60%, respectively. 9 and 18 were tested for activity on SOCE in HEK cells, a human embryonic kidney (HEK) cell line, by fluorescence microscopy, as described elsewhere.[16] After 600 s, Ca^2+ was added and intracellular levels were measured.
Screening, dose–response experiments, and calcium imaging experiments were performed in HEK cells (ATCC, Rock, ville, MD, USA), as already reported elsewhere.[16]

[3] = Thermodynamic aqueous solubility and solubility in in vivo vehicles; type: physicochemical
Description: Thermodynamic aqueous solubility was determined as follows: about 3 mg of the tested compound was weighed and dissolved in 3 mL of deionized water. After vigorous mixing by vortex followed by sonication for 5 min, the resulting supersaturated solution was shaken horizontally overnight at 25 °C. After filtration over a syringe filter (pore 0.22 μm, regenerate cellulose membrane), 100 μL of DMSO was added to 1 mL of the filtered solution. The resulting solution was further diluted in water (typically 1:10) before LC–UV analysis. Aqueous solubility was calculated comparing the filtrate peak area to those of the tested compound DMSO solutions. Solubility in aqueous media was also checked in the following vehicles at the target concentration of 6 mg/mL: saline + 10% DMSO, saline + 10% DMSO + 20% PEG400, saline + 5% ethanol.

[4] = In vitro metabolic stability in mouse liver microsomes; type: in vitro ADME; conditions: MLMs, 50 μM substrate, 3 mM GSH trapping agent, HRMS
Description: Next, the in vitro metabolic stability of the five candidates (31, 34, 36, 38, and 40) was evaluated in mouse liver microsomes (MLMs) activated by NADPH by measuring the substrate residual after 1 h. For comparative purposes, Synta66 was incubated in the same conditions.
Phase I and II (glucuronidation) incubations were performed in MLMs (pooled male mouse CD-1, protein concentration: 20 mg/mL, purchased from Corning B.V. Life Sciences—Amsterdam, The Netherlands) using the procedure previously described[16] with the following modifications: 5 μM substrate concentration for the determination of the residual percentage and 50 μM for 34 metabolite characterization by HRMS; when metabolic activation was studied, 3 mM GSH trapping agent was added in the incubation mixture.

PK analysis in mice = type: in vivo; conditions: C57BL/6, mouse, plasma, 7 mg/kg
Description: To further characterize the compound, a PK analysis was performed in mice. Briefly, mice were injected with 34 (i.v., 7 mg/kg, once) and serial blood sampling was performed.
(§1) All animal experiments observe the regulations in Italy (D.M. 116192) as well as the EU regulations (O.J. of E.C. L 358/1 12/18/1986). Compound 34 was injected i.v. at a dose of 7 mg/kg in C57BL/6 mice. Blood was collected after 5, 15, 30, 60, 120, 240, 360 min and 24 h. Aliquots of plasma samples were analyzed as previously reported.[16] AP was induced in mice by i.p. injections of cerulein, as already reported elsewhere.[16]
In vivo PK evaluation of compound 34.
Table S6. PK parameters of single administration of compound 34 (e.v., 7 mg/kg, n=5)
Parameter Unit Value S.D.

[5] = system: cerulein-induced murine model of AP; test: Cerulein-induced murine model of AP; type: in vivo, mouse; conditions: 10 mg/kg i.p. 30 and 150 min after first cerulein injection; tissue collected at 5 h
Description: The PK profile of our candidate prompted us to investigate its efficacy in a cerulein-induced murine model of AP.[29]
as §1

HEK cells = test: HEK cell viability after 72 h at 50 μM with or without uridine (involvement of DHODH); conditions: up to 60 μM
[6] = intravenous, Table S6, single administration, e.v., n=5
[7] = iv, mice, i.v., once, read-out: half-life (t1/2) (converted)

solubilization at 6 mg/mL in saline containing 10% DMSO + 20% PEG400 ([3]; nominal concentration 6 mg/mL, vehicle for in vivo administration) | increase in aqueous solubility of 34 compared to 36 ([3]; sodium salts) [fold] | solubility ([3]; thermodynamic, deionized water, 25 °C overnight, biphenyl triazoles as sodium salts, read-out: H2O solubility) [µg/mL] | Cmax (PK analysis in mice; [6]) [ng/mL] | Tmax (PK analysis in mice; [6]) [h] | Cmax (PK analysis in mice; iv, mice, once) [ng/mL] | clearance at 24 h (PK analysis in mice; iv, mice, i.v., once, read-out: clearance (Cl) (converted)) [mL/min/kg] | half-life (PK analysis in mice; [7]) [h] | half-life at 24 h (PK analysis in mice; [7]) [h] | Compound | IC50 (SOCE [1]) [µM] | efficacy in cerulein-induced AP (cerulein-induced AP) | AUC compared to the reference compound Synta66 (SOCE [2]) | AUC, peak amplitude, and slope of the Ca2+-rise (SOCE [2]; selected compounds) | formation of glutathione (GSH) adducts [4] | histological scores of pancreatic tissue (H&E), inflammation and edema [5] | cytotoxicity in HEK cells up to 60 μM (HEK cells)
 |  |  |  |  |  |  |  |  | CCCC(C)OC(=O)c1cnn(-c2ccc(-n3cc(-c4cccc(C(=O)O)c4)nn3)cc2)c1C(F)(F)F (stereo not shown) [Compound 3] | 4.4 | demonstrated efficacy; also recorded: significantly ameliorate cerulein-induced AP in rodents without signs of toxicity |  |  |  |  | 
limpid solution | 80 | 1530 | 16800 | 0.2 | 16800 | 8.33 | 3.21 | 3.2 | COc1cccc(-c2ccc(-n3cc(-c4cccc(C(=O)O)c4)nn3)cc2)c1OC [Compound 34, 3-(1-(2′,3′-Dimethoxy-[1,1′-biphenyl]-4-yl)-1H-1,2,3-triazol-4-yl)benzoic Acid] |  |  | significantly reducing the AUC | induced a drop in the three parameters | did not highlight the formation of glutathione (GSH) adducts | significantly ameliorate the histological scores; also recorded: efficacy in a mouse model of cerulein-induced AP | no detectable cytotoxicity

Reference: article PMC7735735, “Store-Operated Calcium Entry as a Therapeutic Target in Acute Pancreatitis: Discovery and Development of Drug-Like SOCE Inhibitors” (Journal of Medicinal Chemistry, 2020)
